These results are taken from ChEMBL document CHEMBL3400071, “The CERT antagonist HPA-12: first practical synthesis and individual binding evaluation of the four stereoisomers” (Bioorg Med Chem, 2015).

The target in the assay is T1, Ceramide transfer protein (Homo sapiens, UniProt Q9Y5P4).
T1 sequence (Q9Y5P4 whole entry): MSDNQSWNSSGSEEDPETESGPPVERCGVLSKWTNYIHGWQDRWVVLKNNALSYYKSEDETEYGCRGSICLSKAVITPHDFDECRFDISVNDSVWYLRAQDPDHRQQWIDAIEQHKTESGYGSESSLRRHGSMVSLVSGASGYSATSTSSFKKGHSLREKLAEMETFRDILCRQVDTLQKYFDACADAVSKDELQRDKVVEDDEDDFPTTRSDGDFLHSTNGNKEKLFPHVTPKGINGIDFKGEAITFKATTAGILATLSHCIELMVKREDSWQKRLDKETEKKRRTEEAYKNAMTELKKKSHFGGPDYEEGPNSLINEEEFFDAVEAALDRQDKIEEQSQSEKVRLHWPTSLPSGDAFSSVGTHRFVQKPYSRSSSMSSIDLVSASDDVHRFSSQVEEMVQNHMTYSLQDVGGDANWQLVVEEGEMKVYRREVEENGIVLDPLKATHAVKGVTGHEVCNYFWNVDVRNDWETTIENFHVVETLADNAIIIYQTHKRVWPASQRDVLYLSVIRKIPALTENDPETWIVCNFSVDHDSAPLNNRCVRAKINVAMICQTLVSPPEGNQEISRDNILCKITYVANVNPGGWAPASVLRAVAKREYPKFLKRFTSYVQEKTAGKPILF
The experiment in a line: Binding affinity to histidine-tagged human recombinant […] containing CERT START domain pre-incubated for 30 mins before biotinylated ceramide probe addition and measured after 18 hrs post probe addition by TR-FRET binding assay. Background: In TR-FRET formats the signal depends on donor and acceptor labels being close together.
For `CCCCCCCCCCCC(=O)N[C@@H](CO)C[C@@H](O)c1ccccc1`, the EC50 came out at 22 µM.

As for `CCCCCCCCCCCC(=O)N[C@H](CO)C[C@H](O)c1ccccc1`, the EC50 came to 25 µM.

As to `CCCCCCCCCCCC(=O)N[C@H](CO)C[C@@H](O)c1ccccc1`, the EC50 was found to be 159 µM.

In the case of `CCCCCCCCCCCC(=O)N[C@@H](CO)C[C@H](O)c1ccccc1`, the EC50 was found to be 4 µM.

A word on the EC50: it is the concentration that produces a half-maximal response.
